From patent US12370263B2, “Cyclic dinucleotide derivative based antibody-drug conjugates” (DAIICHI SANKYO COMPANY, LIMITED, priority 2018, dated 2025)

Key:
[1] = target: T1, HisAviTEV-hSTING (139-342) human wild-type protein (Homo sapiens, UniProt Q86WV6, H232R); assay: Protein thermal shift assay, STING C-terminal binding domain protein; details: test compound final concentration 0.5 mM
T1 construct: made in house; host or cells: E. coli Rosetta 2 (DE3), co-expressed with BirA (1-321)

[2] = target: T2, HisAviTEV-hSTING (139-342) human REF-mutated protein (Homo sapiens, UniProt Q86WV6); assay: as above; details: test compound final concentration 0.5 mM
T2 construct: made in house; host or cells: E. coli Rosetta 2 (DE3), co-expressed with BirA (1-321)

[3] = target: T3, HisAviTEV-hSTING (139-342) human AQ-mutated protein (Homo sapiens, UniProt Q86WV6, G230A/H232R/R293Q); assay: as above; details: test compound final concentration 0.5 mM
T3 construct: made in house; host or cells: E. coli Rosetta 2 (DE3), co-expressed with BirA (1-321)

[4] = target: T4, His-Avi-TEV-mSTING (138-341) mouse wild-type protein (Mus musculus, UniProt Q3TBT3); assay: as above; details: test compound final concentration 0.5 mM
T4 construct: made in house; host or cells: E. coli Rosetta 2 (DE3), co-expressed with BirA (1-321)
Procedure: Each of these expression strains was added to a TB medium containing 100 μg/mL ampicillin, 50 μg/mL streptomycin, and 30 μg/mL kanamycin, cultured at 37° C., then exposed to 100 μM IPTG for inducible expression, and further cultured at 16° C.
The culture solution was centrifuged, and the resulting bacterial cells were suspended in 50 mM HEPES pH 8.0, 500 mM NaCl, 20 mM imidazole, 1 mM DTT, 5% (w/v) glycerol, Complete EDTA free, and then subjected to freeze-thawing. After addition of Lysozyme and DNase I, proteins were extracted by ultrasonic disintegration, and centrifugation was performed and the resulting supernatant was collected. The supernatant obtained was purified by using an AKTA express chromatography system (GE Healthcare, IL, US) with a HisTrap FF column (GE Healthcare), and eluted with buffer (20 mM HEPES pH 7.5, 120 mM NaCl, 20% Glycerol, 0.8 mM DTT) through a Superdex 200 16/60 column (GE Healthcare). […] The protein concentrations were measured by using a NanoDrop2000 (Thermo Fisher Scientific, MA, US), and the proteins were cryopreserved at −80° C. until use.
The binding ability of each compound to the STING C-terminal binding domain proteins was evaluated by protein thermal shift assay, which uses the elevation of thermal denaturation temperature of protein as an index.
Specifically, 3 μL of a test compound (final concentration: 0.5 mM), 3 μL of SYPRO Orange Protein Gel Stain (Thermo Fisher Scientific) (final concentration: 20-fold), and 6 μL of a STING protein were mixed with use of assay buffer (20 mM Tris-HCl pH 7.5, 120 mM NaCl) in a 384-well real-time PCR plate, and mixed together with a plate shaker. With a real-time PCR system (Thermo Fisher Scientific), the temperature was increased from 25° C. to 95° C. at a rate of 0.03° C./sec, and the thermal denaturation temperature of the protein was measured by using fluorescence emitted from SYPRO Orange as an index. From the measurement acquired, Tm (the midpoint of the unfolding transition) (° C.) was determined as a temperature at which the increase rate of fluorescence intensity was maximized by using the analysis software Protein Thermal Shift software (Thermo Fisher Scientific). The Tm value for a well with no compound was subtracted from the Tm value for each test compound to calculate the Tm shift caused by the compound as ΔTm (° C.).

Human STING = Human STING (Homo sapiens, UniProt Q86WV6, G230A/H232R/R293Q/R71H); assay: Reporter gene assay, human STING agonist activity, THP1-Dual cells (HAQ-mutated), IRF pathway; details: THP1-Dual cells IRF EC50, THP1-Dual cells (HAQ-mutated), 24 hours; 100% = maximum count with ML-RR-CDA·2Na+
Human STING, sequence (Q86WV6 whole entry R71H/G230A/H232R/R293Q): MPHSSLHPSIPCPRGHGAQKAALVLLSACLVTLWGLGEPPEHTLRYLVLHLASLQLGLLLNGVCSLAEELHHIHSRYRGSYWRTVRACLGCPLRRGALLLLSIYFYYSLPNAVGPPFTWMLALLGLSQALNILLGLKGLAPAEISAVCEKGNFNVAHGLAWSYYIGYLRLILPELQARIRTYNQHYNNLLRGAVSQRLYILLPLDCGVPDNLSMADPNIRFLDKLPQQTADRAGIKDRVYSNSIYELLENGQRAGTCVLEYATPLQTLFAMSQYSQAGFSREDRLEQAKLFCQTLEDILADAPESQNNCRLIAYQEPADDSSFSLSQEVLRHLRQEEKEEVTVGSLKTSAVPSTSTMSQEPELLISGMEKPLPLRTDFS

T2 sequence (Q86WV6 with tags, fused parts or gaps, change not shown): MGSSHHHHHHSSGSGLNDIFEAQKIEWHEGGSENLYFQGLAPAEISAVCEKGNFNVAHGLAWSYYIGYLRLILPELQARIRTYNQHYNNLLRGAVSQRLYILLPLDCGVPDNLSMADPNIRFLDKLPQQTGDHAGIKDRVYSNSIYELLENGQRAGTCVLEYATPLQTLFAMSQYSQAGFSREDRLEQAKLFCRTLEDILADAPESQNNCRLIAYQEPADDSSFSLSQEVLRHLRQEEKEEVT
T1 sequence (Q86WV6 with tags, fused parts or gaps H232R): as the sequence (Q86WV6 with tags, fused parts or gaps, change not shown) above, with H133R counted along it
T4 sequence (Q3TBT3 with tags, fused parts or gaps limits assumed): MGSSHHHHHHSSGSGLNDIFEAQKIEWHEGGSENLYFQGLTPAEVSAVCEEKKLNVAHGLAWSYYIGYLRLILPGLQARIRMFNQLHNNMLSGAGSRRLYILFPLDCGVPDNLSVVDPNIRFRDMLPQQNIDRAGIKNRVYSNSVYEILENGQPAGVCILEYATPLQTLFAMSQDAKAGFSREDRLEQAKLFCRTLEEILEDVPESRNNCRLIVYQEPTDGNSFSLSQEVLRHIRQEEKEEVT
T3 sequence (Q86WV6 with tags, fused parts or gaps G230A/H232R/R293Q): as the sequence (Q86WV6 with tags, fused parts or gaps, change not shown) above, with G131A, H133R, R194Q counted along it

SMILES	ΔTm at 500 µM [1] [°C]	ΔTm at 500 µM [2] [°C]	ΔTm at 500 µM [3] [°C]	ΔTm at 500 µM [4] [°C]	EC50 (Human STING) [µM]	ΔTm Hu-WT [1] [°C]	ΔTm Hu-REF [2] [°C]	ΔTm Hu-AQ [3] [°C]	ΔTm Ms-WT [4] [°C]
O=c1c2ncn([C@@H]3O[C@@H]4COP(=O)(O)O[C@H]5[C@@H](F)[C@H](n6cc7c8c(ncnc86)NCCC7)O[C@@H]5COP(=O)(O)O[C@@H]3[C@@H]4O)c2ncn1CCO [compound 54, Disodium (5R,7R,8R,12aR,14R,15R,15aR,16R)-15-fluoro-16-hydroxy-7-[1-(2-hydroxyethyl)-6-oxo-1,6-dihydro-9H-purin-9-yl]-2,10-dioxo-14-(6,7,8,9-tetrahydro-2H-2,3,5,6-tetraazabenzo[cd]azulen-2-yl)octahydro-2H,10H,12H-5,8-methano-2λ^5,10λ^5-furo[3,2-1][1,3,6,9,11,2,10]pentaoxadiphosphacyclotetradecine-2,10-bis(olate)]	8.3	3.4	9.8	12.1	4				
NCCNc1nc(N)c2ncn([C@@H]3O[C@@H]4COP(=O)(S)O[C@H]5[C@@H](F)[C@H](n6cc7c8c(ncnc86)SCCC7)O[C@@H]5COP(=O)(S)O[C@@H]3[C@@H]4F)c2n1 (single isomer, unassigned) [51b]	9.9	4.3	11.6	17	0.43				
O=c1c2ncn([C@@H]3O[C@@H]4COP(=O)(S)O[C@H]5[C@@H](F)[C@H](n6cc7c8c(ncnc86)NCCC7)O[C@@H]5COP(=O)(S)O[C@@H]3[C@@H]4F)c2ncn1CCO (single isomer, unassigned) [44a]	13.4	8.7	18.2	19.3	0.21				
NCCNc1nc(N)c2ncn([C@@H]3O[C@@H]4COP(=O)(S)O[C@H]5[C@@H](F)[C@H](n6cc7c8c(ncnc86)NCCC7)O[C@@H]5COP(=O)(S)O[C@@H]3[C@@H]4O)c2n1 (single isomer, unassigned) [37b]					4.5	8.1	3.4	9.4	12.3
O=c1c2ncn([C@@H]3O[C@@H]4COP(=O)(S)O[C@H]5[C@@H](F)[C@H](n6cc7c8c(ncnc86)SCCC7)O[C@@H]5COP(=O)(S)O[C@@H]3[C@@H]4O)c2ncn1CCO (single isomer, unassigned) [48a]	15.9	9.3	22.2	16	0.035				

More lines, now with the values ahead:

ΔTm at 500 µM [1] [°C]	ΔTm at 500 µM [2] [°C]	ΔTm at 500 µM [3] [°C]	ΔTm at 500 µM [4] [°C]	EC50 (Human STING) [µM]	ΔTm Hu-WT [1] [°C]	ΔTm Hu-REF [2] [°C]	ΔTm Hu-AQ [3] [°C]	ΔTm Ms-WT [4] [°C]	SMILES
8	3.9	9.7	11.5	3.5					O=C(CO)NCCn1cnc2c(ncn2[C@@H]2O[C@@H]3COP(=O)(S)O[C@H]4[C@@H](O)[C@H](n5cc6c7c(ncnc75)NCCC6)O[C@@H]4COP(=O)(S)O[C@@H]2[C@@H]3O)c1=O (single isomer, unassigned) [7a]
11	6.6	13.1	13.5	2					NCCn1cnc2c(ncn2[C@@H]2O[C@@H]3COP(=O)(S)O[C@H]4[C@@H](F)[C@H](n5cc6c7c(ncnc75)NCCC6)O[C@@H]4COP(=O)(S)O[C@@H]2[C@@H]3O)c1=O (single isomer, unassigned) [35a]
				3.4	10.3	5.8	12.6	14.2	NCCn1cnc2c(ncn2[C@@H]2O[C@@H]3COP(=O)(S)O[C@H]4[C@@H](F)[C@H](n5cc6c7c(ncnc75)NCCC6)O[C@@H]4COP(=O)(S)O[C@@H]2[C@@H]3O)c1=O (single isomer, unassigned) [35b]
				6.1	7.2	2.8	9.5	13.2	O=C(CO)NCCn1cnc2c(ncn2[C@@H]2O[C@@H]3COP(=O)(S)O[C@H]4[C@@H](O)[C@H](n5cc6c7c(ncnc75)NCCC6)O[C@@H]4COP(=O)(S)O[C@@H]2[C@@H]3O)c1=O (single isomer, unassigned) [7b]
